Publication PMC4413211, “Esters of the Marine-Derived Triterpene Sipholenol A Reverse P-GP-Mediated Drug Resistance” (Marine Drugs, 2015)

How the values were obtained:
SW620 = experiment: cells; set-up: species or system SW620; SW620/Ad300; MTT cytotoxicity assay, absorbance at 570 nm; settings: Homo sapiens, SW-620, 72 h
Description: (§1) The MTT colorimetric assay was used to detect the sensitivity of cells to anticancer drugs. Cells were harvested with trypsin treatment. After washing with PBS, cells were resuspended in the culture media. Cells with a final concentration of 5 × 10^3 cells/well were seeded evenly into 96-well plates with 160 μL media. For the reversal experiments, SSJ compounds, verapamil, FTC or PAK104P (20 μL/well) was added followed by different concentrations of chemotherapeutic drugs (20 μL/well) into designated wells. After 72 h of incubation, 20 μL of MTT solution (5 mg/mL) was added to each well, and the plate was further incubated for 4 h, allowing viable cells to convert the yellow colored MTT into dark-blue formazan crystals. Subsequently, the medium was discarded, and 100 μL of dimethylsulfoxide (DMSO) was added into each well to dissolve the formazan crystals. The absorbance was determined at 570 nm by an OPSYS Microplate Reader from DYNEX Technologies Inc. (Chantilly, VA, USA) followed previously described protocol. The fold of resistance was calculated by dividing the IC50 (concentrations required to inhibit growth by 50%) of the MDR cells by that of the parental sensitive cells. Sipholane analogs (14 compounds) were first tested for cytotoxicity using MTT assay on colon cancer cells SW620 (drug-sensitive) and SW620/Ad300 (drug-resistant). […] Because these compounds were used at a concentration of 5 μM, which is the non-toxic concentration for all of them, they were considered to have no direct cytotoxic effect on cells. HEK293/pcDNA3.1, HEK/ABCB1, HEK/ABCG2 and HEK/ABCC1 cells were generated by transfecting the HEK293 cells with either empty pcDNA3.1 vector, ABCB1 expression vector, ABCG2 expression vector or ABCC1 expression vector respectively. HEK/ABCC1 was generated in the laboratory of Suresh V. Ambudkar (NCI, NIH, Bethesda, MD, USA). The human colon cancer cell line SW620 and doxorubicin-selected P-gp overexpressing SW620/Ad300 cell line were used for the reversal study. SW620, SW620/Ad300 and HEK/ABCG2 cells were also kindly provided by Susan Bates and Robert Robey (NCI, NIH, Bethesda, MD, USA). All the cell lines were grown as adherent monolayers in flasks with DMEM culture medium (GE Healthcare Life Sciences, Logan, UT, USA) supplemented with 10% bovine serum in a humidified incubator containing of 5% CO2 at 37 °C.

SW620/Ad300 = system: T1, SW620/Ad300; experiment: cells; set-up: MTT cytotoxicity assay, absorbance at 570 nm; settings: Homo sapiens, SW620/AD300, 72 h
T1 construct: doxorubicin-selected, P-gp overexpressing
Description: as §1

[1] = target: T2, P-glycoprotein (P-gp/ABCB1) (Homo sapiens, UniProt P08183); experiment: Vanadate-sensitive ATPase stimulation in recombinant human P-gp membranes; supported by [3H]-paclitaxel accumulation/efflux in cells; format: biochemical; set-up: Recombinant human P-gp membrane
T2 sequence (P08183 whole entry): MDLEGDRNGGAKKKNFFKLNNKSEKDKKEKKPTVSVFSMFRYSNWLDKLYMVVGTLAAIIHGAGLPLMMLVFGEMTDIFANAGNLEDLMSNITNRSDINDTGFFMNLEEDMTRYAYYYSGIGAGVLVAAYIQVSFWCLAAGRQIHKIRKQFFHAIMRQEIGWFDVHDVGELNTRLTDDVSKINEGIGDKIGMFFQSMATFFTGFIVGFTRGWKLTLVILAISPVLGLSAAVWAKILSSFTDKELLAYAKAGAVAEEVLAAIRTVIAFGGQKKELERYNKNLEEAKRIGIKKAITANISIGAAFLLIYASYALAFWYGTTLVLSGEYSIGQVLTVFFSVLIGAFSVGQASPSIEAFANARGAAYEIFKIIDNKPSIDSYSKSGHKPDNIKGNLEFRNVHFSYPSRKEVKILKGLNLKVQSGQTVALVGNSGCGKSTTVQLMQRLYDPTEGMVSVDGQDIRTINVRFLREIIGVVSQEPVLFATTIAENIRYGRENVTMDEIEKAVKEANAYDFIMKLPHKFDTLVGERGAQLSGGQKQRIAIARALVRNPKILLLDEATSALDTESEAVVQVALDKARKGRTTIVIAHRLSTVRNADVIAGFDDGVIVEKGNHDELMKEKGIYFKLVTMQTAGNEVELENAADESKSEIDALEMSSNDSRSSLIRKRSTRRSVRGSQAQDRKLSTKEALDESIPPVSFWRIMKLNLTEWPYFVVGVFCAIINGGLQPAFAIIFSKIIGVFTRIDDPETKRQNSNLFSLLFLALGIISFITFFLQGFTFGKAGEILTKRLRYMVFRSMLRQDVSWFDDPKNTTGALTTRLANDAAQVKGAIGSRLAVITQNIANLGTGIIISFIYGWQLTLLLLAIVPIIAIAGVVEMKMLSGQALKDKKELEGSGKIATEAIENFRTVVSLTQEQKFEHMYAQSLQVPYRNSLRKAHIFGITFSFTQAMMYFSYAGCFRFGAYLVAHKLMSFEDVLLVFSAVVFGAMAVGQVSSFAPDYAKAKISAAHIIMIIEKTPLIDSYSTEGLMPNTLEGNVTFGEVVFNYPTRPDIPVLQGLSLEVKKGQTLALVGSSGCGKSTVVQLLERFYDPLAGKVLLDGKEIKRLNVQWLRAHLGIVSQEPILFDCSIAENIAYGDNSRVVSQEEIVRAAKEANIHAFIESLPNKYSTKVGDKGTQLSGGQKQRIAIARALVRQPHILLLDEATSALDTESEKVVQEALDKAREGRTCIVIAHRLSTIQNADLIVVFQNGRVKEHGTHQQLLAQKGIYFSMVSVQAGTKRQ

[2] = target: T2, P-glycoprotein (P-gp/ABCB1)

Compound | IC50 (SW620) [µM] | IC50 (SW620/Ad300) [µM] | EC50 [1] [µM] | [3H]-paclitaxel accumulation and efflux, resistant versus parental cells [2]
CC1=CCC2C(CCC2(C)O)C(C)(C)C1CCC1C(C)(O)CCC2OC(C)(C)C(OC(=O)CCC(=O)O)CCC21C (stereo not drawn) [SSJ25 (2)] | > 30 | > 30 |  | 
CC(=O)O[C@H]1CC[C@]2(C)[C@H](CC[C@@](C)(O)[C@H]2CC[C@H]2C(C)=CC[C@H]3[C@H](CC[C@]3(C)O)C2(C)C)OC1(C)C [SSJ26, sipholenol A-4-O-acetate] | > 30 | > 30 | 0.26 | 
CC(=O)OC1CCC2(C)C(CCC(C)(O)C2CCC2C(C)=CCC3C(CCC3(C)OC(C)=O)C2(C)C)OC1(C)C (stereo not drawn) [SSJ27 (4)] | > 30 | > 30 |  | 
CC1=CCC2C1CC=C(C)C(CCC1C(C)(O)CCC3OC(C)(C)C(O)CCC31C)C2(C)C (stereo not drawn) [SSJ28 (5)] | > 30 | > 30 |  | 
CC1=CCC2C1CC=C(C)C(CCC1C(C)(O)CCC3OC(C)(C)C(OC(=O)c4ccccc4)CCC31C)C2(C)C (stereo not drawn) [SSJ29 (6)] | > 30 | > 30 |  | 
CC1=CCC2C(CCC2(C)O)C(C)(C)C1CCC1C(C)(O)CCC2OC(C)(C)C(OC(=O)c3ccccc3)CCC21C (stereo not drawn) [SSJ31 (8)] | > 30 | > 30 |  | 
CC1=CC[C@H]2[C@H](CC[C@]2(C)O)C(C)(C)[C@H]1CC[C@H]1[C@]2(C)CC[C@H](OC(=O)c3ccncc3)C(C)(C)O[C@H]2CC[C@@]1(C)O [SSJ32, sipholenol A-4-O-isonicotinate] | > 30 | > 30 | 0.6 | 
CC1=CCC2C1CC=C(C)C(CCC1C(C)(O)CCC3OC(C)(C)C(OC(=O)c4ccncc4)CCC31C)C2(C)C (stereo not drawn) [SSJ33 (10)] | > 30 | > 30 |  | 
CC1=CCC2C1CC=C(C)C(CCC1C(C)(O)CCC3OC(C)(C)C(OC(=O)CCC(=O)O)CCC31C)C2(C)C (stereo not drawn) [SSJ34 (11)] | > 30 | > 30 |  | 
CC(=O)OC1CCC2(C)C(CCC(C)(O)C2CCC2C(C)=CCC3C(C)=CCC3C2(C)C)OC1(C)C (stereo not drawn) [SSJ35 (12)] | > 30 | > 30 |  | 
CC1=CCC2C(CCC2(C)O)C(C)(C)C1CCC1C(C)(O)CCC2OC(C)(C)C(OCc3ccccc3)CCC21C (stereo not drawn) [SSJ36 (13)] | > 30 | > 30 |  | 
CC1=CCC2C1CC=C(C)C(CCC1C(C)(O)CCC3OC(C)(C)C(OCc4ccccc4)CCC31C)C2(C)C (stereo not drawn) [SSJ37 (14)] | > 30 | > 30 |  | 
CC(=O)O[C@H]1C(=O)[C@@]2(C)[C@H]([C@H](OC(=O)c3ccccc3)[C@]3(O)C[C@H](OC(=O)[C@H](O)[C@@H](NC(=O)c4ccccc4)c4ccccc4)C(C)=C1C3(C)C)[C@]1(OC(C)=O)CO[C@@H]1C[C@@H]2O [paclitaxel] |  |  |  | while the paclitaxel level significantly decreased in SW620/Ad300 drug-resistant cells, the levels of paclitaxel remained stable in parental SW620
